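The compound was tested at five concentrations on cells cultured in 96-well plates, with a 48-hour exposure period. TGI: concentration producing complete growth inhibition.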
Assays:
Assay in all cases: NCI anticancer screen, dose series, 48 h
M14 melanoma = tested on: M14 melanoma
MCF7 breast = tested on: MCF7 breast
HS 578T breast = tested on: HS 578T breast
HL-60(TB) leukemia = tested on: HL-60(TB) leukemia
HCT-116 colon = tested on: HCT-116 colon
UO-31 renal = tested on: UO-31 renal
OVCAR-5 ovarian = tested on: OVCAR-5 ovarian
U251 CNS = tested on: U251 CNS
SN12C renal = tested on: SN12C renal
HCT-15 colon = tested on: HCT-15 colon
A498 renal = tested on: A498 renal

Compound	TGI (M14 melanoma)	TGI (MCF7 breast)	TGI (HS 578T breast)	TGI (HL-60(TB) leukemia)	TGI (HCT-116 colon)	TGI (UO-31 renal)	TGI (OVCAR-5 ovarian)	TGI (U251 CNS)	TGI (SN12C renal)	TGI (HCT-15 colon)	TGI (A498 renal)
Cc1c(C)c2ccc(OCC(O)COC(C)C)c(C)c2oc1=O (stereo not given)	42 µM	50.1 µM	> 100 µM	60.3 µM	36 µM	> 100 µM	> 100 µM	33.8 µM	–	–	–
COC(=O)[C@]12CC3C=CC1N(C3)C(CBr)c1c2n(S(=O)(=O)c2ccccc2)c2ccccc12 (stereo not given in full)	> 100 µM	> 100 µM	> 100 µM	> 100 µM	> 100 µM	> 100 µM	> 100 µM	> 100 µM	> 100 µM	> 100 µM	–
Cc1ccc([N+](=O)[O-])cc1S(=O)(=O)Nc1ccc(C2=NN(S(=O)(=O)c3cc([N+](=O)[O-])ccc3C)C(c3ccccc3)C2)cc1 (stereo not given)	98.1 µM	> 100 µM	21.2 µM	> 100 µM	51.8 µM	> 100 µM	> 100 µM	> 100 µM	> 100 µM	> 100 µM	82.6 µM
C=CC(=O)Nc1ccc(NC(=O)C=C)c2c1C(=O)c1ccccc1C2=O	> 100 µM	57.4 µM	> 100 µM	24.7 µM	> 100 µM	> 100 µM	> 100 µM	> 100 µM	> 100 µM	> 100 µM	> 100 µM
N#Cc1ccc(C(O)C(F)(F)c2nc3ccccc3o2)cc1 (stereo not given)	> 100 µM	> 100 µM	> 100 µM	> 100 µM	> 100 µM	> 100 µM	–	> 100 µM	–	> 100 µM	–
Cc1ccc(CC2(C(=O)O)Cc3ccc(C)cc3C2)cc1 (stereo not given)	> 100 µM	> 100 µM	> 100 µM	> 100 µM	> 100 µM	> 100 µM	> 100 µM	> 100 µM	> 100 µM	> 100 µM	> 100 µM
Cc1cc(S(=O)(=O)NC2=NCc3nc4ccccc4n32)c(S)cc1Cl	63 µM	70.1 µM	63.3 µM	51.8 µM	34.5 µM	63.6 µM	65.1 µM	> 100 µM	51 µM	59.1 µM	70.7 µM
CCn1cc2c(=O)n3ncn(-c4ccc(Br)cc4)c3nc2n1	> 100 µM	> 100 µM	> 100 µM	> 100 µM	> 100 µM	> 100 µM	> 100 µM	> 100 µM	> 100 µM	> 100 µM	> 100 µM
O=c1nc2n3c4c(cccc4nc-2c(=O)[nH]1)CCC3	> 100 µM	> 100 µM	> 100 µM	> 100 µM	> 100 µM	> 100 µM	> 100 µM	> 100 µM	> 100 µM	> 100 µM	–
CN1C(=O)C2(C)SC1(c1ccccc1)C1C(=O)N(c3ccccc3)C(=O)C12 (stereo not given)	> 100 µM	> 100 µM	> 100 µM	> 100 µM	> 100 µM	> 100 µM	> 100 µM	> 100 µM	> 100 µM	> 100 µM	> 100 µM
CC(/C=C/C(=O)NO)=C\C(C)C(=O)c1ccc(N(C)C)cc1 (stereo not given)	0.971 µM	> 100 µM	0.133 µM	2.53 µM	11.5 µM	0.262 µM	4.6 µM	0.0354 µM	0.206 µM	21.4 µM	0.257 µM
CC1=NN(c2cccc(Cl)c2)C2(SCC(=O)N2c2nc3ccccc3s2)C1=CC=Cc1ccccc1 (stereo not given)	> 100 µM	> 100 µM	63.4 µM	3.04 µM	73.7 µM	> 100 µM	> 100 µM	48.8 µM	–	> 100 µM	61.9 µM
Oc1c(Br)cc(/C=C/c2ccnc(/C=C/c3cc(Br)c(O)c(Br)c3)c2)cc1Br	54.9 µM	60.3 µM	> 100 µM	60.6 µM	30.7 µM	35.4 µM	55.3 µM	30.8 µM	> 100 µM	73 µM	54.4 µM
Cc1ccc(O)c(C(c2cccc(C(c3cc(C)ccc3O)c3cc(C)ccc3O)c2)c2cc(C)ccc2O)c1	3.45 µM	3.18 µM	4.01 µM	5.31 µM	3.34 µM	3.34 µM	3.15 µM	3.32 µM	3.4 µM	3.31 µM	2.97 µM
Cc1ccc2c(=O)cc(-c3sccc3C)[nH]c2n1	> 34.4 µM	> 57.7 µM	13.6 µM	0.743 µM	18.7 µM	23.8 µM	> 100 µM	> 33.6 µM	> 47.2 µM	> 40.6 µM	> 35 µM
COc1ccc(N=c2oc3ccccc3cc2C(N)=O)cc1	> 100 µM	87.7 µM	42.9 µM	> 100 µM	> 100 µM	14.8 µM	–	> 100 µM	> 100 µM	> 100 µM	–
COc1cc2c(cc1OC)OC(c1c(OC)ccc(OC)c1O)CC2 (stereo not given)	> 100 µM	> 100 µM	> 100 µM	69.4 µM	> 100 µM	> 100 µM	> 100 µM	> 100 µM	–	> 100 µM	> 100 µM
COC(=O)CCC(=O)c1ccc2c(c1)CCC2	> 100 µM	> 100 µM	> 100 µM	> 100 µM	> 100 µM	> 100 µM	> 100 µM	> 100 µM	–	> 100 µM	> 100 µM
CCOC(=O)C(C(=O)OCC)=C1SC(=Nc2ccccc2)C(=Nc2ccccc2)N1c1ccccc1	–	> 100 µM	> 100 µM	> 100 µM	> 100 µM	> 100 µM	> 100 µM	> 100 µM	> 100 µM	> 100 µM	> 100 µM
CCOC1CN=C(Nc2cccc3ccccc23)S1 (stereo not given)	> 10 µM	> 10 µM	> 10 µM	> 10 µM	> 10 µM	–	> 10 µM	> 10 µM	> 10 µM	> 10 µM	> 10 µM
